Measurements taken from patent publication US10010492B2, “Methods and compositions for treating skin to resolve inflammation and screening for actives that stimulate pro-resolution pathways” (ELC Management LLC, priority 2015, dated 2018).

Columns and labels:
[1] = system: Inflammatory Metabolites (PGE2, LTB4) and Inflammatory Metabolite Marker (5-HETE); assay: Inflammatory Metabolites and Inflammatory Metabolite Markers in the aggregate, PMA/A23187-stimulated neutrophils, LC-MS/MS; assay type: cell-based, human; settings: for net decrease in cellular concentration of Inflammatory Metabolites and Inflammatory Metabolite Markers vs control: human neutrophils pre-treated 24 h, then PMA/A23187
Procedure: (§1) Ingredients were tested to assess the ability to promote Pro-Resolution Pathway Stimulators in human neutrophils. The following Inflammatory Metabolites were measured:
(§2) PGE2 and LTB4. The Inflammatory Metabolite Marker, 5-HETE, was measured. Also measured were the Pro-Resolving Lipid Mediator Markers 15-HETE, 12-HETE, 14-HDOHE, 18-HEPE, and 17-HDOHE. PGE2, LTB4, and 5-HETE are indicators of inflammation. Increases in cellular secretion of PGE2, LTB4, or 5-HETE are seen in response to inflammation precipitating conditions. Active ingredients that cause a reduction in cellular concentration of PGE2, LTB4, or 5-HETE are anti-inflammatory in nature. Cellular secretion of Pro-Resolving Lipid Mediators occurs in the inflammation resolution phase. Active ingredients that stimulate cellular secretion of Pro-Resolving Lipid Mediators (as measured by measuring Pro-Resolving Lipid Mediator Markers) help to promote resolution of inflammation.
(§3) Then, the inflammatory response was initiated by adding an inflammation precipitating ingredient, in particular PMA/[…] which is a mixture of 5-(methylamino)-2-({(2R,3R,6S,8S,9R,11R)-3,9,11-trimethyl-8-[(1S)-1-methyl-2-oxo-2-(1H-pyrrol-2-yl)ethyl]-1,7-dioxaspiro[5.5]undec-2-yl}methyl)-1,3-benzoxazole-4-carboxylic acid and PMA (phorbol myristate acetate), at a concentration of 0.05 μm and 1 μm respectively to each well. After one hour the supernatants were collected and stored at −80° C. until assayed.
(§4) Cell supernatants were assayed for Inflammatory Metabolites (PGE2, LBT4), Inflammatory Metabolite Markers (5-HETE), and Pro-Resolving Lipid Mediator Markers 15-HETE, 12-HETE, 14-HDOHE, 18-HEPE, and 17-HDOHE. More specifically, analysis was performed by extraction using an Oasis HLB 96-well plate (Waters) according to manufacturer's directions.
(§5) Suitable Pro-Resolving Activators are ingredients that show an increase in cellular concentration of Pro-Resolving Lipid Mediator Markers 15-HETE, 12-HETE, 14-HDOHE, 18-HEPE, and 17-HDOHE alone or in combination, when cells exposed to an inflammation precipitating condition either before or after exposure to the active.

[2] = system: Pro-Resolving Lipid Mediator Markers 15-HETE, 12-HETE, 14-HDOHE, 18-HEPE, and 17-HDOHE; assay: Pro-Resolving Lipid Mediator Markers in the aggregate, PMA/A23187-stimulated neutrophils, LC-MS/MS; assay type: cell-based, human
Procedure: as §1, §2, §3, §4, §5

`Oc1ccc(C=Cc2cc(O)cc(O)c2)cc1` [resveratrol] was tested, and the “decrease in Inflammatory Metabolites and Markers in the aggregate vs control” value ([1]; 0.1 ug/ml) was 45%, the “decrease in Inflammatory Metabolites and Markers in the aggregate vs control” value ([1]; 1 ug/ml) was 59% and the “decrease in Inflammatory Metabolites and Markers in the aggregate vs control” value ([1]; 10 ug/ml) was 106%. For the same compound, the “% change of Pro-Resolving Lipid Mediator Markers in the aggregate compared to control” value (“% change” below) ([2]; 0.1 ug/ml) was −27%, the “% change” value ([2]; 1 ug/ml) was −16% and the “% change” value ([2]; 10 ug/ml) was −10%.

For `O=C(O)c1ccccc1O` [salicylic acid], the “net decrease in cellular concentration of Inflammatory Metabolites and Inflammatory Metabolite Markers vs control” value (from here on “net decrease in cellular concentration”) ([1]; 0.33 μg/ml, aggregate of PGE2, LTB4, 5-HETE) was 29%, the “net decrease in cellular concentration” value ([1]; 3.3 μg/ml, aggregate) was 58% and the “net decrease in cellular concentration” value ([1]; 33 μg/ml, aggregate) was 46%. The “change in cellular concentration of Pro-Resolving Lipid Mediators vs control” value ([2]; 0.33 ug/ml) was “small increase”, the “change in cellular concentration of all Pro-Resolving Lipid Mediator Markers in the aggregate vs control” value ([2]; 3.3 μg/ml) was “decreased” and the “change in cellular concentration of all Pro-Resolving Lipid Mediator Markers in the aggregate vs control” value ([2]; 33 μg/ml) was “decreased”.

resveratrol salicylate was tested, and the “decrease in Inflammatory Metabolites and Inflammation Metabolite Markers in the aggregate vs control” value ([1]; 0.43 ug/ml) was 87%, the “decrease in Inflammatory Metabolites and Inflammation Metabolite Markers in the aggregate vs control” value ([1]; 4.3 ug/ml) was 163% and the “decrease in Inflammatory Metabolites and Inflammation Metabolite Markers in the aggregate vs control” value ([1]; 43 ug/ml) was 257%. The “increase in cellular concentration of Pro-Resolving Lipid Mediator Markers in the aggregate” value (“increase in cellular concentration” for short) ([2]; 0.43 ug/ml) was “not being as effective”, the “increase in cellular concentration” value ([2]; 4.3 ug/ml) was 4% and the “increase in cellular concentration” value ([2]; 43 ug/ml) was 37%.
